Assay results from patent US20130209515A1, “ANTI-INFECTIVE AND IMMUNOMODULATORY COMPOUNDS” (priority 2005, published 2013).

Test system: mouse genes
Test: Whole genome expression in blood of mice after 2AA (Affymetrix GeneChip)
Type: in vivo
Conditions: for Fold Change X14607 Lipocalin 2 / Fold Change AF220015 Rpt-1; regulatory protein, T lymphocyte 1 / Fold Change AF237910 Membrane-spanning 4-domains, subfamily A / Fold Change AI323359 Csfmr, colony stimulating factor IR, regulator of myeloid cell proliferation / Fold Change AI462015 Nuclear factor of kappa light chain gene enhancer in B-cells inhibitor, alpha / Fold Change AI648846 Solute carrier family 6 / Fold Change AV026617 FBJ osteosarcoma oncogene / Fold Change AV229143 Interferon activated gene (202A) / Fold Change AV318494 Myeloid cell leukemia sequence 1 / Fold Change BB193024 Interferon-induced transmembrane protein-2 / Fold Change BB241535 Suppressor of cytokine signaling 3 / Fold Change BB769628 Colony stimulating factor 2 receptor, beta 1 / Fold Change BB784999 Triggering receptor expressed on myeloid cells 1 / Fold Change BB831725 Suppressor of cytokine signaling 3 / Fold Change BC003839 Myeloid cell leukemia sequence 1 (Mcl1) / Fold Change BC010291 Interferon-inducible protein (Cd225) / Fold Change BC011092 Chemokine (C-C) receptor 1 / Fold Change BC011437 IL-1β / Fold Change BC012653 Chemokine (C-X3-C) receptor 1 / Fold Change BC021916 EMAPI, cytokine activity / Fold Change BC022943 Lymphocyte cytosolic protein 1 / Fold Change BE285634 Interleukin-1 receptor accessory protein / Fold Change NM_008039 Receptor activity [formyl peptide receptor, related sequence 2] (Fpr-rs2) / Fold Change NM_008677 p40phox; intracellular signaling cascade neutrophil cytosolic factor 4 (Ncf4) / Fold Change NM_008879 Pls2, L-fimbrin, calcium ion binding lymphocyte cytosolic proteing 1 (Lep 1) / Fold Change NM_009883 Nuclear factor induced by IL-6 (NF-IL6) / Fold Change NM_011087 Paired-Ig-like receptor A1 (Piral) / Fold Change NM_011313 Cacy; calcium binding protein A6 (calcyclin)cyclin-dependent protein kinase / Fold Change NM_011315 Saa-3 lipid transported activity acute phase response / Fold Change NM_011355 PU.1, transcription factor complex cell growth and/or maintenance / Fold Change NM_011940 Interferon-activatable protein (Ifi202) / Fold Change NM_011999 DCIR; C-type (calcium dependent, carbohydrate recognition domain) lectin / Fold Change NM_030691 Integral to membrane immunoglobulin superfamily, member 6 (Igsf6) / Fold Change NM_030694 Interferon-induced transmembrane protein-3 / Fold Change U05264 Glycoprotein 49B (Gp49b) / Fold Change U72644 Leukocyte specific transcript 1: blood
Protocol: To identify how 2AA pre-exposure promotes host defense to better protect against P. aeruginosa infection, we carried out whole genome gene expression studies of mice for several experimental conditions using the mouse full-thickness skin thermal injury infection model, including naïve; BI alone; 2AA treatment alone; 2AA pretreatment plus BI. The mice were injected IP, as we were not yet aware of the improved benefit obtained with IV delivery. Whole blood was collected after 0, 6, 24, 96 and 192 hr post 2AA injection. Also, pretreated BI mice were exposed to 2AA at 1 and 4 days pre-BI, with blood samples collected 24 hr post-BI. The transcriptome profiles were then determined and compared, and genes with statistically significant differences in their expression levels between the samples were further analyzed by pair-wise comparison (see experimental design, section 2.2).
In experiments to determine if T-aminoacetophenone acts as an immunomodulator, eight 6-week old CD-1 male mice were treated intraperitonialy with 500 μl of a 20 mM solution of T-aminoacetophenone in 0.9% NaCl (aq). A control group of mice was administered only 0.9% NaCl. Blood was withdrawn from the mice at time points of 6 hours, 24 hours, 96 hours, and 192 hours, and RNA was extracted from each blood sample.
Mouse GeneChip™ arrays, manufactured by Affymetrix (Santa Clara, Calif.), were used to compare the profile of gene expression in the blood samples of mice. The biotin-labeled cRNA used to hybridize to the GeneChips was prepared from the RNA extracted from the blood samples according to the Affymetrix GeneChip Expression Analysis Technical Manual (Research Genetics, Huntsville, Ala.).
The expression profiles from treated and untreated mice were compared and an additional constraint of a minimum expression ratio of 1 was applied to control false positives to 5%. The gene list was clustered and the genes showing upregulation at any of the time points considered were selected. […] Most of the genes listed in the table function in immune response or host-pathogen interaction. The table includes several cytokines and their receptors, genes involved in immune cell proliferation, and calcium-binding proteins that have a role in downstream signaling.

CC(=O)c1ccccc1N [2AA, 2′-aminoacetophenone]
Fold Change X14607 Lipocalin 2 (24 h after IP 2AA): 0.2 fold | Fold Change AF220015 Rpt-1; regulatory protein, T lymphocyte 1 (96 h after IP 2AA): 0.5 fold | Fold Change AF237910 Membrane-spanning 4-domains, subfamily A (96 h after IP 2AA): 0.0 fold | Fold Change AI323359 Csfmr, colony stimulating factor IR, regulator of myeloid cell proliferation (96 h after IP 2AA): 0.0 fold | Fold Change AI462015 Nuclear factor of kappa light chain gene enhancer in B-cells inhibitor, alpha (96 h after IP 2AA): 0.4 fold | Fold Change AI648846 Solute carrier family 6 (96 h after IP 2AA): 3.7 fold | Fold Change AV026617 FBJ osteosarcoma oncogene (96 h after IP 2AA): 0.0 fold | Fold Change AV229143 Interferon activated gene (202A) (96 h after IP 2AA): 6.8 fold | Fold Change AV318494 Myeloid cell leukemia sequence 1 (96 h after IP 2AA): 0.3 fold | Fold Change BB193024 Interferon-induced transmembrane protein-2 (96 h after IP 2AA): 0.1 fold | Fold Change BB241535 Suppressor of cytokine signaling 3 (96 h after IP 2AA): 0.3 fold | Fold Change BB769628 Colony stimulating factor 2 receptor, beta 1 (96 h after IP 2AA): 3.2 fold | Fold Change BB784999 Triggering receptor expressed on myeloid cells 1 (96 h after IP 2AA): 4.6 fold | Fold Change BB831725 Suppressor of cytokine signaling 3 (96 h after IP 2AA): 2.0 fold | Fold Change BC003839 Myeloid cell leukemia sequence 1 (Mcl1) (96 h after IP 2AA): −0.4 fold | Fold Change BC010291 Interferon-inducible protein (Cd225) (96 h after IP 2AA): −0.3 fold | Fold Change BC011092 Chemokine (C-C) receptor 1 (96 h after IP 2AA): −0.7 fold | Fold Change BC011437 IL-1β (96 h after IP 2AA): 0.2 fold | Fold Change BC012653 Chemokine (C-X3-C) receptor 1 (96 h after IP 2AA): 0.0 fold | Fold Change BC021916 EMAPI, cytokine activity (96 h after IP 2AA): −0.3 fold | Fold Change BC022943 Lymphocyte cytosolic protein 1 (96 h after IP 2AA): −0.4 fold | Fold Change BE285634 Interleukin-1 receptor accessory protein (96 h after IP 2AA): −1.1 fold | Fold Change NM_008039 Receptor activity [formyl peptide receptor, related sequence 2] (Fpr-rs2) (96 h after IP 2AA): 0.2 fold | Fold Change NM_008677 p40phox; intracellular signaling cascade neutrophil cytosolic factor 4 (Ncf4) (96 h after IP 2AA): 0.0 fold | Fold Change NM_008879 Pls2, L-fimbrin, calcium ion binding lymphocyte cytosolic proteing 1 (Lep 1) (96 h after IP 2AA): 0.0 fold | Fold Change NM_009883 Nuclear factor induced by IL-6 (NF-IL6) (96 h after IP 2AA): −0.1 fold | Fold Change NM_011087 Paired-Ig-like receptor A1 (Piral) (96 h after IP 2AA): 0.2 fold | Fold Change NM_011313 Cacy; calcium binding protein A6 (calcyclin)cyclin-dependent protein kinase (96 h after IP 2AA): 0.5 fold | Fold Change NM_011315 Saa-3 lipid transported activity acute phase response (96 h after IP 2AA): 1.5 fold | Fold Change NM_011355 PU.1, transcription factor complex cell growth and/or maintenance (96 h after IP 2AA): 9.2 fold | Fold Change NM_011940 Interferon-activatable protein (Ifi202) (96 h after IP 2AA): 9.4 fold | Fold Change NM_011999 DCIR; C-type (calcium dependent, carbohydrate recognition domain) lectin (96 h after IP 2AA): 5.3 fold | Fold Change NM_030691 Integral to membrane immunoglobulin superfamily, member 6 (Igsf6) (96 h after IP 2AA): 0.0 fold | Fold Change NM_030694 Interferon-induced transmembrane protein-3 (96 h after IP 2AA): 0.2 fold | Fold Change U05264 Glycoprotein 49B (Gp49b) (96 h after IP 2AA): 0.6 fold | Fold Change U72644 Leukocyte specific transcript 1 (96 h after IP 2AA): −0.2 fold | Fold Change X14607 Lipocalin 2 (96 h after IP 2AA): 0.2 fold | Fold Change AF220015 Rpt-1; regulatory protein, T lymphocyte 1 (192 h after IP 2AA): 0.6 fold | Fold Change AF237910 Membrane-spanning 4-domains, subfamily A (192 h after IP 2AA): 0.5 fold | Fold Change AI323359 Csfmr, colony stimulating factor IR, regulator of myeloid cell proliferation (192 h after IP 2AA): 0.3 fold | Fold Change AI462015 Nuclear factor of kappa light chain gene enhancer in B-cells inhibitor, alpha (192 h after IP 2AA): 0.7 fold | Fold Change AI648846 Solute carrier family 6 (192 h after IP 2AA): 7.8 fold | Fold Change AV026617 FBJ osteosarcoma oncogene (192 h after IP 2AA): 10.5 fold | Fold Change AV229143 Interferon activated gene (202A) (192 h after IP 2AA): 6.2 fold | Fold Change AV318494 Myeloid cell leukemia sequence 1 (192 h after IP 2AA): 1.2 fold | Fold Change BB193024 Interferon-induced transmembrane protein-2 (192 h after IP 2AA): 0.3 fold | Fold Change BB241535 Suppressor of cytokine signaling 3 (192 h after IP 2AA): 1.0 fold | Fold Change BB769628 Colony stimulating factor 2 receptor, beta 1 (192 h after IP 2AA): 5.2 fold | Fold Change BB784999 Triggering receptor expressed on myeloid cells 1 (192 h after IP 2AA): 0.0 fold | Fold Change BB831725 Suppressor of cytokine signaling 3 (192 h after IP 2AA): 5.9 fold | Fold Change BC003839 Myeloid cell leukemia sequence 1 (Mcl1) (192 h after IP 2AA): 0.1 fold | Fold Change BC010291 Interferon-inducible protein (Cd225) (192 h after IP 2AA): −0.3 fold | Fold Change BC011092 Chemokine (C-C) receptor 1 (192 h after IP 2AA): −0.3 fold | Fold Change BC011437 IL-1β (192 h after IP 2AA): 0.6 fold | Fold Change BC012653 Chemokine (C-X3-C) receptor 1 (192 h after IP 2AA): 0.0 fold | Fold Change BC021916 EMAPI, cytokine activity (192 h after IP 2AA): −0.2 fold | Fold Change BC022943 Lymphocyte cytosolic protein 1 (192 h after IP 2AA): −0.1 fold | Fold Change BE285634 Interleukin-1 receptor accessory protein (192 h after IP 2AA): −0.2 fold | Fold Change NM_008039 Receptor activity [formyl peptide receptor, related sequence 2] (Fpr-rs2) (192 h after IP 2AA): 0.2 fold | Fold Change NM_008677 p40phox; intracellular signaling cascade neutrophil cytosolic factor 4 (Ncf4) (192 h after IP 2AA): 0.1 fold | Fold Change NM_008879 Pls2, L-fimbrin, calcium ion binding lymphocyte cytosolic proteing 1 (Lep 1) (192 h after IP 2AA): 0.0 fold | Fold Change NM_009883 Nuclear factor induced by IL-6 (NF-IL6) (192 h after IP 2AA): −0.1 fold | Fold Change NM_011087 Paired-Ig-like receptor A1 (Piral) (192 h after IP 2AA): 0.1 fold | Fold Change NM_011313 Cacy; calcium binding protein A6 (calcyclin)cyclin-dependent protein kinase (192 h after IP 2AA): 1.4 fold | Fold Change NM_011315 Saa-3 lipid transported activity acute phase response (192 h after IP 2AA): −0.2 fold | Fold Change NM_011355 PU.1, transcription factor complex cell growth and/or maintenance (192 h after IP 2AA): 6.0 fold | Fold Change NM_011940 Interferon-activatable protein (Ifi202) (192 h after IP 2AA): 9.1 fold | Fold Change NM_011999 DCIR; C-type (calcium dependent, carbohydrate recognition domain) lectin (192 h after IP 2AA): 9.6 fold | Fold Change NM_030691 Integral to membrane immunoglobulin superfamily, member 6 (Igsf6) (192 h after IP 2AA): 5.6 fold | Fold Change NM_030694 Interferon-induced transmembrane protein-3 (192 h after IP 2AA): 0.6 fold | Fold Change U05264 Glycoprotein 49B (Gp49b) (192 h after IP 2AA): 0.9 fold | Fold Change U72644 Leukocyte specific transcript 1 (192 h after IP 2AA): 0.1 fold | Fold Change X14607 Lipocalin 2 (192 h after IP 2AA): 0.2 fold | genes with >2× expression differences at least at one point vs control mice (IP 2AA, blood 0, 6, 24, 96, 192 hr): 835 genes | genes involved in the P38 MAPK pathway induced (post-2AA treatment): 7/8
